Earlier results on 3 compounds are cited in publication PMC140124 (Biological Procedures Online, 1998).

Read-outs that look alike come from different tables or passages of the source.

With L-tyrosyl-L-arginine [KTP], the “appearance on the serosal side” value (absence of peptidase inhibitors, ref [2]) is reported as “did not appear on the serosal side”; the “appearance on the serosal side” value (presence of peptidase inhibitors such as o-phenanthrolin, tryptophan hydroxamate and bestatin, ref [2]) is given as “appeared on the serosal side”.
With L-tyrosyl-D-arginine [D-KTP], the “absorption clearance (the overall transport clearance)” value (rat everted jejunum, peptidase-resistant isomer, ref [2]) was 0.516 µL/min/cm.
As for `O=S1(=O)OC(c2ccc(O)cc2)(c2ccc(O)cc2)c2ccccc21` [phenol red], the “change of absorption clearance” value (presence of peptidase inhibitors, ref [1]) is listed as “did not increase”.
